In patent US11173124B2, “Oral delivery of GLP-1 peptide analogs” (MEDIMMUNE LIMITED, priority 2017, dated 2021):
“And” between values parts separate entries of the source, which are not always exact repeats. Equal entries are not always repeated. Starred links: 1 amine or outer side, 2 acyl side, 3 side chain; linkers in the order of their positions; H or OH if unused. Non-standard residues stand in square brackets, D forms with d. Residues, ends and D or L forms follow the SMILES beside them. Groups on a side chain read outwards from the residue. *: point of attachment. γGlu = O=C(O)[C@H](CCC(=O)[*:2])N[*:1]; αMeF = C[C@](N)(Cc1ccccc1)C(=O)O; αMeK = C[C@](N)(CCCCN)C(=O)O; Lauroyl = CCCCCCCCCCCC(=O)*; αMeS = C[C@](N)(CO)C(=O)O; AEEA = NCCOCCOCC(=O)O; Aib = CC(C)(N)C(=O)O

What was measured:
[1] = Canine study, MEDI7219 enterically coated tablets, enhancer ratios, amounts and peptide doses (Example 15); format: in vivo
Description: The next canine study (Table 22) was executed to confirm the performance of the formulation from the previous study (Example 14, Group 2 formulation, Table 21) at 1, 3 and 10 mg MEDI7219 (SEQ ID NO:2) peptide doses. The second goal was to explore the influence of formulation compositions designed around the Group 2 formulation with varying ratios and amounts of permeation enhancers in an enterically-coated tablet form on bioavailability and pharmacokinetic variability. The following formulation variables were tested: sodium chenodeoxycholate:propyl gallate ratios of 1:1, 1:2, and 1:3; 150, 300 and 450 mg of permeation enhancers at a 1:2 ratio; and 1, 3 and 10 mg peptide doses. All tablets were enterically coated with Eudragit formula dissolving at pH 5.5 and above.

[2] = in vivo; details: beagle, dog, po
Description: The following materials and methods were used for quantitative measurements of GLP-1 peptide analogs in plasma (e.g., rat or dog plasma) in the Examples below. These methods used a SCIEX 6600 TripleTOF mass spectrometer coupled with a Shimadzu ultra-high performance liquid chromatography (UHPLC). The specificity of the method was ensured by the retention time, the selected mass for Single-Reaction-Monitoring (SRM) mode, and the selected fragment mass in MS/MS (MS^2) mode. […] The analytes of interest were analyzed from plasma, a complex biological matrix. Although protein precipitation using organic solvent can reduce matrix interference, significant background still persists. The high mass accuracy offered by the TripleTOF mass spectrometers further eliminated background noise, thus enhancing signal: noise (S/N) and allowing improved quantification.
The plasma extraction procedure used the following steps: • Samples, standards, and quality controls were incubated until they reached room temperature. They were then incubated at 60° C. for 2 minutes and cooled down to room temperature, vortexed, and spun down. • 70 μL of samples, standards, or quality controls were transferred into a 1 mL 96-well plate. • In each well, 420 uL of Precipitation Solution was added. The plate was sealed and shook for 10 minutes on a plate shaker at 600 rpm. • The plate was centrifuged at 18G, 2500 RFC, 20° C. for 10 minutes. • The plate was carefully removed, and the upper clear supernatant was extracted with a 200 uL multichannel pipette into a new 96-well protein lobind plate. The supernatant was extracted twice for each well, and the supernatants were combined. • The Plate was placed in TurboVap and the extracted supernatant was dried completely with heated (65° C.) Nitrogen gas at 60 Fahrenheit (Fh). • After the plate was completely dry, the plates were covered and incubated at room temperature for at least 30 minutes until the plate returned back to ambient temperature. • 150 μL of Reconstitution solution was added to each well. The plate was covered with a pierceable place seal and shaken at 600 rpm for 10 minutes. • The samples were submitted to the LC-MS/MS on the same day of Preparation
Quantification of the data obtained using the high resolution SCIEX 6600 instrument was then performed as follows: • For the quantification, extracted ion chromatograms (XIC) using 0.2 Da m/z extraction window centered on the accurate mass of each fragment ion were generated. Accurate mass was calculated from the structure of the compound. […] Concentrations of the target analyte in unknown samples were obtained by regression analysis using linear fits of peak areas vs. analyte concentration, weighted 1/(concentration). • The quality of the assay was controlled by the quality control samples. • Either Experiment 1 or Experiment 2 could be used for the quantification of the GLP-1 peptide analogs in high resolution mode.
MEDI7219 (SEQ ID NO:2) formulations were studied in the following canine study, which was designed to compare different tablet delivery systems and peptides in enterically coated tablet formulation compositions delivered orally. […]
The efficacy of sodium caprate as a permeation enhancer was also evaluated.

[3] = Canine study, MEDI7219 multi-unit particulate (MUPS) formulations (Example 16); format: in vivo; details: Oral capsule, MUPS 9 mg peptide, 88 mg Na CDC, 190 mg PG
Description: Ten different Multi-unit particulate (MUPS) formulations were prepared (Table 23) using the MEDI7219 (SEQ ID NO:2) peptide and permeation enhancers. The manufacturing process for the MUPS formulation was as follows. A solution of MEDI7219 (SEQ ID NO:2) peptide, sodium chenodeoxycholate and propyl gallate was prepared in water and sprayed onto sugar spheres in a Glatt Mini fluid bed coater. Following drying, sugar spheres coated with peptide and permeation enhancers were coated to result in the compositions described in Table 23.

F ([1]; Intravenous, 0.05 mg/kg): 100%
F ([1]; Oral tablet, Group 10: 1 mg peptide, 100 mg Na CDC, 200 mg PG): 1.11%
F ([1]; Oral tablet, Group 11: 1 mg peptide, 100 mg Na CDC, 200 mg PG): 4.78%
F ([1]; Oral, Group 2 Enterically Coated tablet: 3 mg peptide, 100 mg Na CDC, 200 mg PG): 15.5%
F ([1]; Oral, Group 3 Enterically Coated tablet: 10 mg peptide, 100 mg Na CDC, 200 mg PG): 7.5%
F ([1]; Oral, Group 4 Enterically Coated tablet: 3 mg peptide, 75 mg Na CDC, 225 mg PG): 7.52%
F ([1]; Oral, Group 5 Enterically Coated tablet: 3 mg peptide, 50 mg Na CDC, 100 mg PG): 11.1%
F ([1]; Oral, Group 6 Enterically Coated tablet: 10 mg peptide, 50 mg Na CDC, 100 mg PG): 13.5%
F ([1]; Oral, Group 7 Enterically Coated tablet: 3 mg peptide, 150 mg Na CDC, 300 mg PG): 7.53%
F ([1]; Oral, Group 8 Enterically Coated tablet: 3 mg peptide, 150 mg Na CDC, 150 mg PG): 6.62%
F ([1]; Oral, Group 9 Enterically Coated tablet: 1 mg peptide, 100 mg Na CDC, 200 mg PG): > 4% and 4.2%
AUC [2]: 13500 ng·h/mL
half-life [2]: 10 h
F ([3]; 10% Carbopol 71G Mucoadhesive polymer + 25% pH 5.5 EC): 0.393%
F ([3]; 10% Carbopol 71G Mucoadhesive polymer + 25% pH 7.0 EC): 0.582%
F ([3]; 10% Polycarbophill AA Mucoadhesive polymer + 25% pH 5.5 EC): 0.124%
F ([3]; 10% Polycarbophill AA Mucoadhesive polymer + 25% pH 7.0 EC): 0.572%
F ([3]; + 10% Eudragit(RL + RS) + 25% pH 5.5 EC): 0.537%
F ([3]; pH 5.5 EC): 1.30%
F ([3]; pH 7.0 EC): 2.54%
SMILES: CCCCCCCCCCCC(=O)N[C@@H](CCC(=O)NCCOCCOCC(=O)NCCOCCOCC(=O)NCCCC[C@H](NC(=O)[C@H](C)NC(=O)[C@@H](NC(=O)[C@](C)(Cc1ccccc1)NC(=O)[C@H](CCC(=O)O)NC(=O)[C@](C)(CCCCN)NC(=O)[C@H](C)NC(=O)[C@H](C)NC(=O)[C@H](CCC(=O)O)NC(=O)CNC(=O)[C@H](CCC(=O)O)NC(=O)[C@H](CC(C)C)NC(=O)[C@H](CCCCNC(=O)COCCOCCNC(=O)COCCOCCNC(=O)CC[C@H](NC(=O)CCCCCCCCCCC)C(=O)O)NC(=O)[C@H](CO)NC(=O)[C@](C)(CO)NC(=O)[C@@H](NC(=O)[C@H](CC(=O)O)NC(=O)[C@H](CO)NC(=O)[C@@H](NC(=O)[C@](C)(Cc1ccccc1)NC(=O)[C@H](CO)NC(=O)CNC(=O)[C@H](CCC(=O)O)NC(=O)C(C)(C)NC(=O)[C@@H](N)Cc1c[nH]cn1)[C@@H](C)O)C(C)C)[C@@H](C)CC)C(=O)N[C@H](C(=O)N[C@H](C(=O)N[C@@H](CCC(=O)O)C(=O)NCC(=O)NCC(N)=O)C(C)C)C(C)C)C(=O)O [MEDI7219, Free-H-[AIB]-EGS-[αMePhe]-TSDV-[αMeSer]-SK[(PEG2)2-γE-Lauroyl]-LEGEAA-[αMeLys]-E-[αMePhe]-IAK[(PEG2)2-γE-Lauroyl]-VVEGG-amide] (H-H[Aib]EGS[αMeF]TSDV[αMeS]SK([AEEA-AEEA-γGlu-Lauroyl])LEGEAA[αMeK]E[αMeF]IAK([AEEA-AEEA-γGlu-Lauroyl])VVEGG-NH2)
